The subject of test [1] is leukotriene C4 -induced contraction of guinea pig peripheral strips. The test can be described thus: SRS-A antagonists (SALTI): leukotriene C4-induced contraction of guinea pig peripheral lung strips. The following applies: Cavia porcellus; 0.2 μM leukotriene C4-induced contraction; read-out: SALTI, I50 μM. Here is the method: Protocol for SRS-A (Slow-reacting Substance of Anaphylaxis Antagonists (SALTI)
Peripheral strips of guinea pig lungs are prepared and hung in tissue baths (Metro #ME-5505, 10 ml) according to the published procedure (Pro. Nat'l. Acad. Sci., U.S.A. Volume 77, pp. 4354-4358, 1980). The strips are thoroughly rinsed in Assay Buffer and then connected with surgical silk thread to the support rods from the tissue baths. The rods are adjusted in the baths and the strips connected to the pressure transducers (Grass FT 103 or Gould UC-3). The tissue baths are aerated with 95% oxygen 5% carbon dioxide and maintained at 37° C. The Assay Buffer has been made as follows: For each liter of buffer the following are added to approximately 800 ml of water distilled in glass--6.87 g. NaCl, 0.4 g. KCl, […]. NaHCO3, 0.14 g. NaH2 PO4.H2 O, 0.21 g. MgSO4.7H2 O, and 2.0 g. D-glucose. Then a solution of 0.368 g. CaCl2.2H2 O in 100 ml glass-distilled water is slowly added to the buffer. Sufficient water is added to adjust the volume to one liter, and the solution is aerated with 95% oxygen--5% carbon dioxide. Usually 10 liters of buffer are used for an experiment with 4 tissues.
After the tissues have been repeatedly washed and allowed to equilibrate in the tissue bath, they are challenged with 1 μM histamine. After maximum contractions have been obtained, the tissues are washed, and allowed to relax back to baseline tension. This histamine challenge procedure is repeated at least 1 to 2 more times to obtain a repeatable control response. The average response to 1 μM histamine for each tissue is used to normalize all other challenges.
Responses of each tissue to a predetermined concentration of leukotriene are then obtained. Usually test compounds are examined initially at 30 μM on resting tension of the tissues without any added agonist or antagonist to determine if the compound has any possible intrinsic activity. The tissues are washed, and the test compound is added again. Leukotriene is added after the desired pre-incubation time. The intrinsic activity of the compounds, and their effect on leukotriene-induced contractions are then recorded.
The concentration required for 50% inhibition of 0.2 μM leukotriene C4 -induced contraction of guinea pig peripheral strips for representative compounds of the present invention is shown in Table 3.

Test [2] has as its target T1, Phospholipase A2 (PLA2) (Rattus norvegicus, UniProt P14423).
T1 construct: obtained by aggregation of purified rat platelets; from tissue; host or cells: rat platelets (enzyme obtained by aggregation)
T1 sequence (P14423 22-146): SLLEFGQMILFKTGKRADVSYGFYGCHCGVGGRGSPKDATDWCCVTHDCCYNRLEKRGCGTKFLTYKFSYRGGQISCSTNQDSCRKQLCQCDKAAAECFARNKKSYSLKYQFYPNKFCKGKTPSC
The test can be described thus: In vitro assay for inhibitors of Phospholipase A2 (PLA2) from rat platelets. The following applies: pH 7.2, 37° C.; read-out: PLA2, I50. In kind it is biochemical. The text has this:
B. In Vitro Assay For Inhibitors of Phospholipase A2 Assayed at pH 7.0 (PLA2)
The PLA2 employed in this screen is obtained by aggregation of purified rat platelets. In the enzyme assay phosphatidylcholine having ^14 C-labeled palmitate residues at R1 and R2 is employed as substrate. PLA2 acts by cleaving the R2 fatty acid ester bond yielding free fatty acid and lysophosphatidyl choline as follows: [drawing 19]
Following completion of the reaction, the assay medium is acidified and extracted with hexane, which takes up unreacted substrate and free fatty acid product. The hexane extract is passed over a short silica column which retains 99% of the phosphatidyl choline. The ^14 C-labeled palmitic acid is not retained (90% recovery in eluate) and is collected directly in scintillation counting vials. The released palmitic acid is conveniently quantitated by liquid scintillation spectrometry.
The compounds were tested at 100 uM in a buffer containing 0.3 mM unlabeled phosphatidylcholine (PC), 20-30,000 cpm of ^14 C(CPC), […], 1 mM CaCl2 and 50 mM tris-HCl adjusted to pH 7.2 with 1N NaOH. […] The temperature of the buffer was maintained at a temperature of 37° C. The reaction was initiated by addition of the enzyme and it was terminated 30 minutes later by the addition of […] of 1N HCl.
Following acidification, the samples were extracted with 2 ml of 2-propanol and 2 ml of hexane, vortexed and allowed to stand until the phases separated. Free fatty acids (FFA) and some unreacted substrate were taken up in the isopropanol-saturated hexane. The hexane phase of the extraction mixture was transferred to a short silica gel column which retained […] but not the FFA. The column effluent was collected directly in scintillation vials. The columns were washed once with an additional 2 ml of hexane. The radio labeled FFA were quantitated by liquid scintillation spectrometry.

In the case of `CCC(=CC=Cc1cn(Cc2ccccc2)c2ccccc12)C(=O)O` [Example 9, 5-(1-Benzylindol-3-yl)-2-Ethyl-2,4-Pentadienoic Acid], the IC50 in test [1] came to 18 µM; in test [2], 47 µM.
